According to US9067928B2 (Genentech, Inc., priority 2008, dated 2015):

Target: T1, Bcl-xL (Homo sapiens, UniProt Q07817)
T1 construct: made in house
Experiment: Alpha Screen Bcl-xL binding assay, competition with Bim26-mer
Conditions: values listed in the order of Table 1; read-out: Alphascreen results (IC50)

T1 sequence (Q07817 whole entry, species assumed): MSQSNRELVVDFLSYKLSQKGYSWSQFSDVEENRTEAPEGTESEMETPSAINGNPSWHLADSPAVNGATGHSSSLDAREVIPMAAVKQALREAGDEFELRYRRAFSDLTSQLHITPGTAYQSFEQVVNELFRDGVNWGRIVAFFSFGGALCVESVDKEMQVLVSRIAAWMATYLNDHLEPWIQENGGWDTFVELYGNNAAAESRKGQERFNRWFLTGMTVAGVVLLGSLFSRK

SMILES: O=C(O)c1nc(-c2ccc3c(c2)N(C(=O)Nc2nc4ccccc4s2)CCC3)sc1-c1ccc(-c2ccccc2)cc1 [Example 92, 2-(1-(benzo[d]thiazol-2-ylcarbamoyl)-1,2,3,4-tetrahydroquinolin-7-yl)-5-(biphenyl-4-yl)thiazole-4-carboxylic acid]
- IC50: 2 nM
